From US7348426B1, “Substituted bicyclic heterocycles, process for their preparation and their use as antiobesity and hypocholesterolemic agents” (Dr. Reddy's Laboraties Limited, priority 1999, dated 2008)

Key:
[1] = tested on: cholesterol fed Syrian Hamsters; conditions: hamster, in vivo, po, 10 mg/kg/day
C57BL/KsJ-db/db mice = assay: Blood sugar and triglyceride lowering in db/db mice (genetic model); format: in vivo
From the text: Mutation in colonies of laboratory animals and different sensitivities to dietary regimens have made the development of animal models with non-insulin dependent diabetes and hyperlipidemia associated with obesity and insulin resistance possible. Genetic models such as db/db and ob/ob (Diabetes, (1982) 31(1): 1-6) mice and zucker fa/fa rats have been developed by the various laboratories for understanding the pathophysiology of disease and testing the efficacy of new antidiabetic compounds (Diabetes, (1983) 32: 830-838; Annu. Rep. Sankyo Res. Lab. (1994). 46: 1-57). The homozygous animals, C57 BL/KsJ-db/db mice developed by Jackson Laboratory, U.S., are obese, hyperglycemic, hyperinsulinemic and insulin resistant (J. Clin. Invest., (1990) 85: 962-967), whereas heterozygous are lean and normoglycemic. In db/db model, mouse progressively develops insulinopenia with age, a feature commonly observed in late stages of human type II diabetes when blood sugar levels are insufficiently controlled. The state of pancreas and its course vary according to the models. Since this model resembles that of type II diabetes mellitus, the compounds of the present invention were tested for blood sugar and triglycerides lowering activities. Male C57BL/KsJ-db/db mice of 8 to 14 weeks age, having body weight range of 35 to 60 grams, bred at Dr. Reddy's Research Foundation (DRF) animal house, were used in the experiment. The mice were provided with standard feed (National Institute of Nutrition (NIN), Hyderabad, India) and acidified water, ad libitum. The animals having more than 350 mg/dl blood sugar were used for testing. The number of animals in each group was 4. […] The control group received vehicle (dose 10 ml/kg). On 6th day the blood samples were collected one hour after administration of test compounds/vehicle for assessing the biological activity. The random blood sugar and triglyceride levels were measured by collecting blood (100 μl) through orbital sinus, using heparinised capillary in tubes containing EDTA which was centrifuged to obtain plasma. The plasma glucose and triglyceride levels were measured spectrometrically, by glucose oxidase and glycerol-3-PO4 oxidase/peroxidase enzyme (Dr. Reddy's Lab. Diagnostic Division Kits, Hyderabad, India) methods respectively. The blood sugar and triglycerides lowering activities of the test compound was calculated according to the formula. Formulae for Calculation: 1. Percent reduction in Blood sugar/triglycerides/total cholesterol were calculated according to the formula: [formula] OC=Zero day control group value OT=Zero day treated group value TC=Test day control group value TT=Test day treated group value 2. LDL and VLDL cholesterol levels were calculated according to the formula: […]

[2] = tested on: hypercholesterolemic Sprague Dawley rats; conditions: rat, in vivo, po, 1 mg/kg
[3] = tested on: Swiss albino mice and Guinea pigs; assay: Plasma triglyceride and total cholesterol lowering activity in Swiss albino mice and Guinea pigs; format: in vivo; conditions: 3 mg/kg orally for 6 days; species of the table not stated (Swiss albino mice / Guinea pigs)
Method: C) Plasma Triglyceride and Total Cholesterol Lowering Activity in Swiss Albino Mice and Guinea Pigs Male Swiss albino mice (SAM) and male Guinea pigs were obtained from NIN and housed in DRF animal house. All these animals were maintained under 12 hour light and dark cycle at 25±1° C. Animals were given standard laboratory chow (NIN, Hyderabad. India) and water, ad libitum. […] C. Effects of fenofibrate, gemfibrozil and nicotinic acid on plasma lipoprotein levels in normal and hyperlipidemic mice. Atherosclerosis. 1988, 70: 107-114). […] Control mice were treated with vehicle (0.25% Carboxymethylcellulose; dose 10 ml/kg). […] Control animals were treated with vehicle (0.25% Carboxymethylcellulose; dose 5 ml/kg). The blood samples were collected in fed state 1 hour after drug administration on 0 and 6 day of treatment. The blood was collected from the retro-orbital sinus through heparinised capillary in EDTA containing tubes. After centrifugation, plasma sample was separated for triglyceride and total cholesterol (Wieland, O. Methods of Enzymatic analysis. Bergermeyer, H. O., Ed., 1963. 211-214; Trinder, P. Ann. Clin. Biochem. 1969, 6: 24-27). […] Percent reduction in Blood sugar/triglycerides/total cholesterol were calculated according to the formula: [formula] […] LDL and VLDL cholesterol levels were calculated according to the formula: […]

[4] = 10 mg/kg oral gavage daily for 6 days
[5] = 3 mg/kg oral gavage daily for 6 days

## CCOC(Cc1ccc(OCCN2CCSc3ccccc32)cc1)C(=O)[O-].[Na+] (racemic) [Example 30, (±) 3-[4-[2(2,3-Dihydro-1,4-benzothiazin-4-yl)ethoxy]phenyl]-2-ethoxypropanoic acid, sodium salt]
[1]
  Body weight Reduction (%): 18%

## CCOC(Cc1ccc2cc(OCCN3CCSc4ccccc43)ccc2c1)C(=O)[O-].[Na+] (racemic) [Example 44]
C57BL/KsJ-db/db mice; [4]
  Reduction in Blood Glucose Level (%): 47%
  Triglyceride Lowering (%): 74%
[2]
  HDL (%) ↑ increase: 46%
  LDL (%) ↓ reduction: 44%
  Total Cholesterol (%) ↓ reduction: 42%
  Triglyceride (%) ↓ reduction: 50%
  VLDL (%) ↓ reduction: 53%

## CCCCOC(Cc1ccc(OCCN2CCOc3ccccc32)cc1)C(=O)[O-].[Na+] (racemic) [Example 50, (±) 3-[4-[2-(2,3-Dihydro-1,4-benzoxazin-4-yl)ethoxy]phenyl]-2-butoxypropanoic acid, sodium salt]
C57BL/KsJ-db/db mice; [5]
  Reduction in Blood Glucose Level (%): 45%
  Triglyceride Lowering (%): 23%

## CCOC(Cc1ccc(OCC2CN(Cc3ccccc3)c3ccccc3O2)cc1)C(=O)[O-].[Na+] (racemic) [Example 63, (±) 3-[4-(4-Benzyl-3,4-dihydro-1,4-benzoxazin-2-yl)methoxyphenyl]-2-ethoxy propanoic acid, sodium salt]
[3]
  Triglyceride Lowering (%): 57%
